Drawing on publication PMC8087795 (2021), this text covers Kd and ΔFRET15µM for ten compounds.

In assay [1] the test system is oligoribonucleotide 3 (biotinylated truncated pre-miR-21) (RNA, miRNA) CCGACUGAUGUUGACUGUUGAAUCUCAUGGCAACACCAGUCGG
Put plainly: SPR steady state. The note with it: 80 mM NaCl, 100 mM total Na+; 20 mM sodium cacodylate, pH 7.2; equivalent affinity for all sites; per site.

For assay [2], the system named is oligoribonucleotide 4 (biotinylated FRET-pair truncated pre-miR-21) (RNA, miRNA, tC^O (cytosine analogue, donor) at 15; tCnitro (cytosine analogue, acceptor) at 24) CCGACUGAUGUUGACUGUUGAAUCUCAUGGCAACACCAGUCGG
Put plainly: SPR steady state. The note with it: 80 mM NaCl, 100 mM total Na+; 20 mM sodium cacodylate, pH 7.2; equivalent affinity for all sites; per site.

Assay [3] relates to oligoribonucleotide 5 (hairpin loop FRET-labelled truncated pre-miR-21) (RNA, miRNA, tC^O (cytosine analogue, donor) at 24; tCnitro (cytosine analogue, acceptor) at 31) CCGACUGAUGUUGACUGUUGAAUCUCAUGGCAACACCAGUCGG
Put plainly: interbase-FRET, change in FRET efficiency. The note with it: 80 mM NaCl, 100 mM total Na+; 20 mM sodium cacodylate, pH 7.2; 1 µM RNA, 15 µM compound; single concentration, not a constant.

Assay [4] concerns oligoribonucleotide 7 (stem FRET-labelled truncated pre-miR-21) (RNA, miRNA, tC^O (cytosine analogue, donor) at 15; tCnitro (cytosine analogue, acceptor) at 37) CCGACUGAUGUUGACUGUUGAAUCUCAUGGCAACACCAGUCGG
Put plainly: interbase-FRET, change in FRET efficiency. The note with it: 80 mM NaCl, 100 mM total Na+; 20 mM sodium cacodylate, pH 7.2; 1 µM RNA, 15 µM compound; single concentration, not a constant.

The subject of assay [5] is oligoribonucleotide 2 (truncated pre-miR-21, 43 nt) (RNA, miRNA) CCGACUGAUGUUGACUGUUGAAUCUCAUGGCAACACCAGUCGG
Description: ITC. Conditions: 80 mM NaCl, 100 mM total Na+; 20 mM sodium cacodylate, pH 7.2, 25 °C; 10 µM RNA; 1:1 fit.

Each structure is given as a SMILES string.

In general, Kd refers to the equilibrium constant for the complex coming apart. For the compound `CCN[C@@H]1C[C@H](N)[C@@H](O[C@H]2OC(CN)=CC[C@H]2N)[C@H](O)[C@H]1O[C@H]1OC[C@](C)(O)[C@H](NC)[C@H]1O`, the Kd came out at 28 ± 35 µM in assay [1] and 27 ± 34 µM in assay [2].
Regarding `CN[C@@H]1[C@@H](O)[C@@H](O[C@@H]2[C@@H](O)[C@H](O[C@H]3OC(CN)=CC[C@H]3N)[C@@H](N)C[C@H]2N)OC[C@]1(C)O`, the ΔFRET15µM is on record as 0.023 in assay [3] and 0.041 in assay [4]. Further, the dissociation constant (Kd) in assay [1] and in assay [2] was 4 ± 2 µM throughout.
Regarding `CN[C@@H]1[C@@H](O)[C@@H](O[C@@H]2[C@@H](O)[C@H](O[C@H]3O[C@H]([C@@H](C)O)[C@@H](O)[C@H](O)[C@H]3N)[C@@H](N)C[C@H]2N)OC[C@]1(C)O`, the dissociation constant Kd in assay [1] is listed as 101 ± 44 µM; in assay [2], 94 ± 57 µM.
In the same order, the values of `CN[C@@H]1[C@@H](O[C@H]2O[C@H](CO)[C@@H](N)[C@H](O)[C@H]2O)O[C@H]2C[C@@H](N)[C@@H](O[C@H]3[C@H](O)[C@@H](O)[C@H](N)C[C@@H]3N)O[C@@H]2[C@@H]1O` are 22 ± 12 µM and 23 ± 12 µM.
As for `CN[C@@H]1[C@H](O[C@H]2[C@H](O[C@H]3[C@H](O)[C@@H](O)[C@H](N=C(N)N)[C@@H](O)[C@@H]3N=C(N)N)O[C@@H](C)[C@]2(O)C=O)O[C@@H](CO)[C@H](O)[C@H]1O`, the figures for the ΔFRET15µM in assay [3] and in assay [4] were 0.004 and 0.008, respectively. The Kd in assay [1] was found to be 134 ± 76 µM; in assay [2], 115 ± 80 µM.
`NCC[C@H](O)C(=O)N[C@@H]1C[C@H](N)[C@@H](O[C@H]2O[C@H](CN)[C@@H](O)[C@H](O)[C@H]2O)[C@H](O)[C@H]1O[C@H]1O[C@H](CO)[C@@H](O)[C@H](N)[C@H]1O`: the Kd is reported as 15 ± 4 µM in assay [1] and 14 ± 3 µM in assay [2].
In the case of `NC[C@@H]1O[C@H](O[C@H]2[C@@H](O)[C@H](O[C@@H]3[C@@H](O)[C@H](N)C[C@H](N)[C@H]3O[C@H]3O[C@H](CN)[C@@H](O)[C@H](O)[C@H]3N)O[C@@H]2CO)[C@H](N)[C@@H](O)[C@@H]1O`, the ΔFRET15µM in assay [3] is 0.042; in assay [4], 0.045. Also, the Kd in assay [5] is 5.2 ± 0.8 µM; in assay [1], 3.9 ± 2.8 µM; in assay [2] it was 2.7 ± 1.7 µM.
Consider `NC[C@H]1O[C@H](O[C@H]2[C@H](O)[C@@H](O[C@H]3O[C@H](CO)[C@@H](O)[C@H](N)[C@H]3O)[C@H](N)C[C@@H]2N)[C@H](N)C[C@@H]1O`, for which the ΔFRET15µM in assay [3] is given as 0.024; in assay [4], 0.049. Also, the Kd in assay [1] is on record as 8 ± 4 µM; in assay [2], 8 ± 5 µM.
For `NC[C@H]1O[C@H](O[C@H]2[C@H](O)[C@@H](O[C@H]3O[C@H](CO)[C@@H](O)[C@H](N)[C@H]3O)[C@H](N)C[C@@H]2N)[C@H](O)[C@@H](O)[C@@H]1O`, the dissociation constant Kd in assay [1] worked out at 44 ± 18 µM; in assay [2], 45 ± 23 µM.
Turning to `NC[C@H]1O[C@H](O[C@H]2[C@H](O[C@@H]3O[C@H](CO)[C@@H](O)[C@H]3O)[C@@H](O)[C@H](N)C[C@@H]2N)[C@H](N)[C@@H](O)[C@@H]1O`, the dissociation constant (Kd) in assay [1] is reported as 90 ± 73 µM; in assay [2] it was 78 ± 67 µM.
